Inhibition data for 1 compound are collected here from US20050233435A1, “Plasmodium axenic liver stages as a noninfectious whole organism malaria vaccine” (priority 2003, published 2005).

In general, inhibition refers to the change of the read-out against control, counted positive when it falls.

In the assay the test system is P. berghei sporozoites. Kind of assay: Host cell-free transformation of sporozoites into EEFs (liver stages). Conditions: Plasmodium berghei; lactacystin 10 μM in the culture medium. The assay is classed as cell-based. As for the experimental part: Transformation medium and quantification of transformation: Sporozoites were suspended in DMEM medium (BioWhittaker) containing 2 mM of L-glutamine, 4.5 g/l glucose and supplemented with 10% Fetal Bovine Serum (FBS; HyClone) and 500 U/ml penicillin/streptomycin and 1.25 μl/ml fungizon (Sigma). For the generation of Plasmodium axenic liver stages, 5×10^4 sporozoites were inoculated per well of a 8 well chamber slide (Labtek) and maintained at 37° C. in 5% CO2. Initially, slides were coated with Matrigel (Becton Dickinson) at density of 100 μg/cm^2 to improve the development. Matrigel improved attachment of the parasites to the slide, but was not essential for transformation.
To determine transformation rates for various conditions and slides, the host cell-free cultures of GFP-expressing P. berghei sporozoites were examined by fluorescence microscopy at 400× magnification using an Eclipse TE 300 fluorescence microscope (Nikon, Inc.) using a green filter (excitation wavelength 495 nm/emission wavelength 519 nm). EEFs were scored as completely transformed only when they appeared completely spherical with no sporozoite remnants visible. Each count was performed in triplicate on three independent experiments done with sporozoites isolated from different batches of infected mosquitoes.

Compound `CC(=O)N[C@@H](CSC(=O)[C@]1([C@@H](O)C(C)C)NC(=O)[C@H](C)[C@@H]1O)C(=O)O` [lactacystin] gave an inhibition at 10 µM of around 70%.
